US10918645B2 (LIFEARC, priority 2016, dated 2021)

What was measured:
Format in all cases: biochemical
Details in all cases: 1 μM inhibitor concentration
NEK2a = NEK2a (Homo sapiens (Human), UniProt P51955); assay: NEK2a kinase selectivity assay
Procedure: 5-20 mU of NEK2a (diluted in 50 mM Tris (pH 7.5), 0.1 mM EGTA, 1 mg/ml BSA, 0.1%, b-Mercaptoethanol) is assayed against NEK2a peptide ([…]) in a final volume of 25.5 μl containing 50 mM Tris (pH 7.5), 0.1 mM EGTA, 0.01% Brij, 0.1%, b-Mercaptoethanol, 300 μM NEK2a peptide, 10 mM magnesium acetate and 0.05 mM [33P-g-ATP](500-1000 cpm/pmole) and incubated for 30 mins at room temperature. Assays are stopped by addition of 5 μl of 0.5M (3%) orthophosphoric acid. Assays are harvested onto P81 Unifilter plates using a wash buffer of 50 mM orthophosphoric acid.

MELK = MELK (Homo sapiens (Human), UniProt Q14680); assay: MELK kinase selectivity assay
Procedure: (§1) MELK (5-20 mU diluted in 50 mM Tris pH 7.5, 0.1 mM EGTA, 0.1% b-mercaptoethanol, 1 mg/ml BSA) is assayed against a substrate peptide ([…]) in a final volume of 25.5 μl containing 50 mM Tris pH 7.5, 0.05% b-mercaptoethanol, 200 μM substrate peptide, 10 mM magnesium acetate and 0.05 mM [33P-g-ATP] (50-1000 cpm/pmole) and incubated for 30 min at room temperature. Assays are stopped by addition of 5 μl of 0.5 M (3%) orthophosphoric acid and then harvested onto P81 Unifilter plates with a wash buffer of 50 mM orthophosphoric acid.

SGK1 = SGK1 (Homo sapiens (Human), UniProt O00141); assay: SGK1 kinase selectivity assay
Procedure: SGK (5-20 mU diluted in 20 mM MOPS pH 7.5, 1 mM EDTA, 0.01% Brij35, 5% glycerol, 0.1% b-mercaptoethanol, 1 mg/ml BSA) is assayed against a modified Crosstide peptide […] in a final volume of 25.5 μl containing 8 mM MOPS pH 7.0, 0.2 mM EDTA, 30 μM substrate peptide, 10 mM magnesium acetate and 0.02 mM [33P-g-ATP] (50-1000 cpm/pmole) and incubated for 30 min at room temperature. Assays are stopped by addition of 5 μl of 0.5 M (3%) orthophosphoric acid and then harvested onto P81 Unifilter plates with a wash buffer of 50 mM orthophosphoric acid.

CSK = CSK (Homo sapiens (Human), UniProt P41240); assay: CSK kinase selectivity assay
Procedure: CSK (5-20 mU diluted in 20 mM MOPS pH7.5, 1 mM EDTA, 0.01% Brij35, 5% glycerol, 0.1% b-mercaptoethanol, 1 mg/ml BSA) is assayed against Cdc2 peptide ([…]) in a final volume of 25.5 μl containing 8 mM MOPS pH7.0, 0.2 mM EDTA, Cdc2 peptide (0.25 mM), 10 mM magnesium acetate and 0.02 mM [33P-g-ATP](500-1000 cpm/pmole) and incubated for 30 min at room temperature Assays are stopped by addition of 5 μl of 0.5 M (3%) orthophosphoric acid and then harvested onto P81 Unifilter plates with a wash buffer of 50 mM orthophosphoric acid.

PLK1 = PLK1 (Homo sapiens (Human), UniProt P53350); assay: PLK1 kinase selectivity assay
Procedure: as §1, with “PLK1 (5-20” for “MELK (5-20”, “mg/ml BSA, 100 μM Vanadate)” for “mg/ml BSA)”, “b-mercaptoethanol, 10 μM Vanadate, 300” for “b-mercaptoethanol, 200”, “and 0.005” for “and 0.05”
as §1, with “PLK1 (5-20” for “MELK (5-20”, “mg/ml BSA, 100 µM Vanadate)” for “mg/ml BSA)”, “b-mercaptoethanol, […], 300” for “b-mercaptoethanol, 200”, “and 0.005” for “and 0.05”

PKA = PKA (Homo sapiens (Human), UniProt P17612); assay: PKA kinase selectivity assay
Procedure: PKA (5-20 mU diluted in 20 mM MOPS pH 7.5, 1 mM EDTA, 0.01% Brij35, 0.1% b-mercaptoethanol, 1 mg/ml BSA) is assayed against Kemptide (LRRASLG) in a final volume of 25.5 μl containing 8 mM MOPS pH 7.5, 0.2 mM EDTA, 30 μM substrate peptide, 10 mM magnesium acetate and 0.005 mM [33P-g-ATP] (50-1000 cpm/pmole) and incubated for 30 min at room temperature. Assays are stopped by addition of 5 μl of 0.5 M (3%) orthophosphoric acid and then harvested onto P81 Unifilter plates with a wash buffer of 50 mM orthophosphoric acid.

YES1 = YES1 (Homo sapiens (Human), UniProt P07947); assay: YES1 kinase selectivity assay
Procedure: YES1 (5-20 mU diluted in 50 mM Tris pH 7.5, 0.1 mM EGTA, 1 mg/ml BSA) is assayed against a substrate peptide (Poly Glut Tyr) in a final volume of 25.5 μl containing 50 mM Tris pH 7.5, 1 mg/ml substrate peptide, 10 mM magnesium acetate and 0.02 mM [33P-g-ATP] (50-1000 cpm/pmole) and incubated for 30 min at room temperature. Assays are stopped by addition of 5 μl of 0.5 M (3%) orthophosphoric acid and then harvested onto P81 Unifilter plates with a wash buffer of 50 mM orthophosphoric acid.

PKD1 = PKD1 (Homo sapiens (Human), UniProt Q15139); assay: PKD1 kinase selectivity assay
Procedure: as §1, with “PKD1” for “MELK”, “assayed” for “assayed against a”, “30” for “200”

Sequence of CSK (P41240 whole entry, species assumed): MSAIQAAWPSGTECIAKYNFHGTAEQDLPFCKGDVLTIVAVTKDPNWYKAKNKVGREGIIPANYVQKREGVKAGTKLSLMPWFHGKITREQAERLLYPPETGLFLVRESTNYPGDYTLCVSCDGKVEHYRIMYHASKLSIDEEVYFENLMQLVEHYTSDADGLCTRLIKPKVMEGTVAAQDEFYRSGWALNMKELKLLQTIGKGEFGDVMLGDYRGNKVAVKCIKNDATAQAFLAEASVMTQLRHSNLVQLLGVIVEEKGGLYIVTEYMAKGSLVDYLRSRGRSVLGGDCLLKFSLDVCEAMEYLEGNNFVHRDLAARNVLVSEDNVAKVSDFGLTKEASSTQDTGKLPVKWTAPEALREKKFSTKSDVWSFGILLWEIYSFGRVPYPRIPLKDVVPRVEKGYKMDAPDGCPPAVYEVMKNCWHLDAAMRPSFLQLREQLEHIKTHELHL
Sequence of NEK2a (P51955 whole entry, species assumed): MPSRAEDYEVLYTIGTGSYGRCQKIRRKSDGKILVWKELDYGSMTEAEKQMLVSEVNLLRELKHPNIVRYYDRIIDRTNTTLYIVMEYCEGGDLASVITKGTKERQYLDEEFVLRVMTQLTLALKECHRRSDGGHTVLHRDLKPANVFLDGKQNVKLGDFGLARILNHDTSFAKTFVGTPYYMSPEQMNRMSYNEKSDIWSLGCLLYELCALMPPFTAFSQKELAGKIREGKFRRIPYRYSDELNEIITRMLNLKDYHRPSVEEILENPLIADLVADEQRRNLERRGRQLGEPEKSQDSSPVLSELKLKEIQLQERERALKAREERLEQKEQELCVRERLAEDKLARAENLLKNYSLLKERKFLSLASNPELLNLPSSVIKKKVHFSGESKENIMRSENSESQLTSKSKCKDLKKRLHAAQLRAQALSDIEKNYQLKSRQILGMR
Sequence of PLK1 (P53350 whole entry, species assumed): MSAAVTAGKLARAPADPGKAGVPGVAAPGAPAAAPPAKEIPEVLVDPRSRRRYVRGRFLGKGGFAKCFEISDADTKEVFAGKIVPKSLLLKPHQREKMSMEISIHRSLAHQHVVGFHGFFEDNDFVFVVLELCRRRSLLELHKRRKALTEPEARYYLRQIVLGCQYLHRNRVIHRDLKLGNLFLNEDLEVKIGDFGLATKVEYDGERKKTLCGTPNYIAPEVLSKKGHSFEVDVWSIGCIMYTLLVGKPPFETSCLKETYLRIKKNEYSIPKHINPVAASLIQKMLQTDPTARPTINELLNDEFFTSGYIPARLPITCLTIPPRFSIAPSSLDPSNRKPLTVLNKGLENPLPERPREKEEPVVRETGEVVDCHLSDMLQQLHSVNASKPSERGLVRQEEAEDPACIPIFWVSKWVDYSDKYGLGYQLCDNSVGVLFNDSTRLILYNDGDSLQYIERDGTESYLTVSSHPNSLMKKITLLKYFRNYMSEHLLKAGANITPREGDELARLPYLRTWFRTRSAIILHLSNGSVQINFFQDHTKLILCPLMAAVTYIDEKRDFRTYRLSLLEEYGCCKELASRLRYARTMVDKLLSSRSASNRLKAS
Sequence of SGK1 (O00141 whole entry, species assumed): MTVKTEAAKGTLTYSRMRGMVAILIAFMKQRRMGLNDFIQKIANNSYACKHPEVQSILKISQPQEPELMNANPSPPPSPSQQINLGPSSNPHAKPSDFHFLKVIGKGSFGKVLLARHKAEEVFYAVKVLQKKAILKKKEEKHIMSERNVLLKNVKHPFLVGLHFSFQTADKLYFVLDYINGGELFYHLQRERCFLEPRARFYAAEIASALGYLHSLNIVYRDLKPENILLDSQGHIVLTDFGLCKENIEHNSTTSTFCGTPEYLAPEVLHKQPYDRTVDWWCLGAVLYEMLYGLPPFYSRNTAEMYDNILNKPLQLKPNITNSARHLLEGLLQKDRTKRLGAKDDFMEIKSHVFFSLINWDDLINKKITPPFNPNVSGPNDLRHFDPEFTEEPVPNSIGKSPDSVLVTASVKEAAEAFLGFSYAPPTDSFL
Sequence of YES1 (P07947 whole entry, species assumed): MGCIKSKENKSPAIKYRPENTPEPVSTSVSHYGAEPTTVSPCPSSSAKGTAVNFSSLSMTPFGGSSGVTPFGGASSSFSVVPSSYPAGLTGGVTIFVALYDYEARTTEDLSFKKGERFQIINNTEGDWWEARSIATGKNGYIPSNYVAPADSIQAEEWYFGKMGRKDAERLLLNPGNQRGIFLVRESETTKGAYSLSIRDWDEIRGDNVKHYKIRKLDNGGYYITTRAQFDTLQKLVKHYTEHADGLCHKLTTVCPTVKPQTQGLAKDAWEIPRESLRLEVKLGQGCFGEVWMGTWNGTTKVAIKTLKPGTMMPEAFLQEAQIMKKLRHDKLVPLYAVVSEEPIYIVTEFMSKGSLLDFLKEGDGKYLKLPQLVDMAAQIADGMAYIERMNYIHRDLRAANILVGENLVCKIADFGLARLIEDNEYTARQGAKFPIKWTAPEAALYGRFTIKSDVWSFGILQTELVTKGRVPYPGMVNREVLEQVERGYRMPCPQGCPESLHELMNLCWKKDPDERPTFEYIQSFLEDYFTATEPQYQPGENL
Sequence of PKD1 (Q15139 whole entry): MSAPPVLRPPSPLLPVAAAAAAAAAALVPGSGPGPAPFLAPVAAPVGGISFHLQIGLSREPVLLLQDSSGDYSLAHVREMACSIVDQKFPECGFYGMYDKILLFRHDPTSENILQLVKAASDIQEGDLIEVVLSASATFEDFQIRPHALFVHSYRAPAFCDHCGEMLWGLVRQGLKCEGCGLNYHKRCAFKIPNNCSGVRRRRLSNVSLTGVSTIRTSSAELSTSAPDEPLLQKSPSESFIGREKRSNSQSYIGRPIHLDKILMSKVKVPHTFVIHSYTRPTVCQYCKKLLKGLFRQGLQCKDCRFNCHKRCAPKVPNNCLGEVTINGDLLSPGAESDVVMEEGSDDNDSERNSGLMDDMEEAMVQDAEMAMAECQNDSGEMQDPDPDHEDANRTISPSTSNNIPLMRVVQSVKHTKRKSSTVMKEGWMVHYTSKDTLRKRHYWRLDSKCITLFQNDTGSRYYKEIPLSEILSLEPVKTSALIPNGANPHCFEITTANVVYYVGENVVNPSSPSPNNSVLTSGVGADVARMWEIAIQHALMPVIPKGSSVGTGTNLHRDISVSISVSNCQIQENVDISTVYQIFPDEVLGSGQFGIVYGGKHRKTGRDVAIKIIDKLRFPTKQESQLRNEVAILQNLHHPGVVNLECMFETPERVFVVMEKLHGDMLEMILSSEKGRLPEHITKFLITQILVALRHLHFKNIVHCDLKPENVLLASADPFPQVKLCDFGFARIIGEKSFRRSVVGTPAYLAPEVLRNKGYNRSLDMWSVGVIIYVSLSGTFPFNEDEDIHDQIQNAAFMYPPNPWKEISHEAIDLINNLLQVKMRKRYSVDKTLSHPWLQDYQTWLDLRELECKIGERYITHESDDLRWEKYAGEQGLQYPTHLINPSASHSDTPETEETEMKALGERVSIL
Sequence of MELK (Q14680 whole entry, species assumed): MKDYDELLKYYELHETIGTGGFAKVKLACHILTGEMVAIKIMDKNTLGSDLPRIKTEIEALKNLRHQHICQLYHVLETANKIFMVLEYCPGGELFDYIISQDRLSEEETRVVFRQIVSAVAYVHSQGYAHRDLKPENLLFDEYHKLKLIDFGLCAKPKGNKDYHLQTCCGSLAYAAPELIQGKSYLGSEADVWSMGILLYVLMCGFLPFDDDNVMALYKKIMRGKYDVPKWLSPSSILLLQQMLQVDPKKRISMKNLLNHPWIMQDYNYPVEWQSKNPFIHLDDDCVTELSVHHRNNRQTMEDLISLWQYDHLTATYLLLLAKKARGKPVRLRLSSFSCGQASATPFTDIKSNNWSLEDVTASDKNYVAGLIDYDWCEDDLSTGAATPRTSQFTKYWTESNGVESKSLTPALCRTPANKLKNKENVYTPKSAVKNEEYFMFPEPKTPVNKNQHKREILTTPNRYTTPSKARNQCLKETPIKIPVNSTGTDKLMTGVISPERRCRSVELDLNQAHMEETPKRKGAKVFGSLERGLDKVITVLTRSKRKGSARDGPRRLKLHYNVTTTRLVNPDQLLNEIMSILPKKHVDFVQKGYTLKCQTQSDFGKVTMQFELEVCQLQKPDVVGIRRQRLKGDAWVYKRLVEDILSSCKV

Structure (SMILES)	percentage inhibition of NEK2a (NEK2a)	percentage inhibition of MELK (MELK)	percentage inhibition of SGK1 (SGK1)	percentage inhibition of CSK (CSK)	percentage inhibition of PLK1 (PLK1)	percentage inhibition of PKA (PKA)	percentage inhibition of YES1 (YES1)	percentage inhibition of PKD1 (PKD1)
CC(C)n1ncc2c1CN(C1CCN(C)CC1)c1nccc3[nH]nc-2c13 [Example 68]	0 percentage	72 percentage	23 percentage	0 percentage	21 percentage	0 percentage	5 percentage	46 percentage
c1cc2[nH]nc3c2c(n1)N(C1CCC1)CCC3 [Example 22, 6-cyclobutyl-6,7,8,9-tetrahydro-2H-1,2,5,6-tetraazabenzo[cd]azulene]	13 percentage	10 percentage	13 percentage	1 percentage	4 percentage	0 percentage	0 percentage	20 percentage
c1cc2[nH]nc3c2c(n1)N(C1CCCC1)CCC3 [Example 23, 6-cyclopentyl-6,7,8,9-tetrahydro-2H-1,2,5,6-tetraazabenzo[cd]azulene]	8 percentage	1 percentage	0 percentage	0 percentage	3 percentage	0 percentage	0 percentage	9 percentage
CN1CCC(N2Cc3ccccc3-c3n[nH]c4ccnc2c34)CC1 [Example 55]	14 percentage	78 percentage	10 percentage	0 percentage	28 percentage	0 percentage	16 percentage	73 percentage
c1cc2[nH]nc3c2c(n1)N(C1CCOCC1)CCC3 [Example 29, 6-(tetrahydro-2H-pyran-4-yl)-6,7,8,9-tetrahydro-2H-1,2,5,6-tetraazabenzo[cd]azulene]	0 percentage	24 percentage	18 percentage	0 percentage	0 percentage	0 percentage	0 percentage	3 percentage
